This note sets out measurements from PubChem BioAssay AID1259407 (Chemical Carcinogenesis Research Information System (CCRIS), 2018).

Calls of active or inactive are those of the source. The rule behind the calls is not given here.

This data set concerns CCRIS mutagenicity, Ames/micronucleus/aberration tests. The data set is described as follows: CCRIS mutagenicity studies.
Setting [1] is: Test System: AMES SALMONELLA TYPHIMURIUM, Strain/Indicator: TA98, Metabolic Activation: NONE, Method: STANDARD PLATE.
The mark [2] stands for this setting: Test System: AMES SALMONELLA TYPHIMURIUM, Strain/Indicator: TA100, Metabolic Activation: NONE, Method: STANDARD PLATE.
[3] abbreviates: Test System: MOUSE LYMPHOMA, Strain/Indicator: L5178Y (TK+/TK-), Metabolic Activation: RAT, LIVER, S-9, AROCLOR 1254, Method: SUSPENSION/PLATE.
Where [4] appears, read: Test System: AMES SALMONELLA TYPHIMURIUM, Strain/Indicator: TA98, Metabolic Activation: HAMSTER, LIVER, S-9, AROCLOR 1254, Method: STANDARD PLATE.
The mark [5] stands for this setting: Test System: AMES SALMONELLA TYPHIMURIUM, Strain/Indicator: TA98, Metabolic Activation: RAT, LIVER, S-9, AROCLOR 1254, Method: STANDARD PLATE.
[6] abbreviates: Test System: AMES SALMONELLA TYPHIMURIUM, Strain/Indicator: TA100, Metabolic Activation: HAMSTER, LIVER, S-9, AROCLOR 1254, Method: STANDARD PLATE.
The mark [7] stands for this setting: Test System: AMES SALMONELLA TYPHIMURIUM, Strain/Indicator: TA100, Metabolic Activation: RAT, LIVER, S-9, AROCLOR 1254, Method: STANDARD PLATE.
Where [8] appears, read: Test System: AMES SALMONELLA TYPHIMURIUM, Strain/Indicator: TA1535, Metabolic Activation: HAMSTER, LIVER, S-9, AROCLOR 1254, Method: STANDARD PLATE.
Where [9] appears, read: Test System: AMES SALMONELLA TYPHIMURIUM, Strain/Indicator: TA1535, Metabolic Activation: NONE, Method: STANDARD PLATE.
The mark [10] stands for this setting: Test System: AMES SALMONELLA TYPHIMURIUM, Strain/Indicator: TA1535, Metabolic Activation: RAT, LIVER, S-9, AROCLOR 1254, Method: STANDARD PLATE.
Where [11] appears, read: Test System: AMES SALMONELLA TYPHIMURIUM, Strain/Indicator: TA1537, Metabolic Activation: HAMSTER, LIVER, S-9, AROCLOR 1254, Method: STANDARD PLATE.
[12] abbreviates: Test System: AMES SALMONELLA TYPHIMURIUM, Strain/Indicator: TA1537, Metabolic Activation: NONE, Method: STANDARD PLATE.
Where [13] appears, read: Test System: AMES SALMONELLA TYPHIMURIUM, Strain/Indicator: TA1537, Metabolic Activation: RAT, LIVER, S-9, AROCLOR 1254, Method: STANDARD PLATE.
Where [14] appears, read: Test System: Mouse lymphoma, Strain/Indicator: L5178Y (tk+/tk-), Metabolic Activation: None, Method: Suspension/plate.
The mark [15] stands for this setting: Test System: AMES SALMONELLA TYPHIMURIUM, Strain/Indicator: TA102, Metabolic Activation: NONE, Method: STANDARD PLATE.

On to `OCc1ccc2c3c(cccc13)-c1ccccc1-2`, for which the mutagenic call under setting [1] is “inactive; negative” and the mutagenic call under setting [2] is “inactive; negative”.
On to `CC1(C)CCC2(C(=O)OC3OC(CO)C(O)C(O)C3O)CCC3(CO)C(=CCC4C5(C)CC(O)C(O)C(C)(C(=O)OC6OC(CO)C(O)C(O)C6O)C5CCC43C)C2C1` (stereo not given), for which the mutagenic call runs as follows: (End Point: In vivo micronucleus, Test System: Bone marrow polychromatic erythrocytes, Species: Mouse, Strain/Sex: C57BL/6J/Male, Route: Intraperitoneal) “inactive; negative; protective when coadministered with gamma radiation”; (Test System: MOUSE LYMPHOMA, Strain/Indicator: L5178Y (TK+/TK-), Metabolic Activation: NONE, Method: SUSPENSION/PLATE) “inactive; negative. reevaluation of results: negative”; under setting [3], “inactive; negative. reevaluation of results: negative”.
On to `O=C(/C=N/O)Nc1ccccc1`, for which the mutagenic call was “inactive; negative” under setting [4]; “inactive; negative” under setting [1]; “inactive; negative” under setting [5]; “inactive; negative” under setting [6]; “inactive; negative” under setting [2]; “inactive; negative” under setting [7]. The mutagenic call reads like this: under setting [8], “inactive; negative”; under setting [9], “inactive; negative”; under setting [10], “inactive; negative”; under setting [11], “inactive; negative”; under setting [12], “inactive; negative”; under setting [13], “inactive; negative”. Moreover, the mutagenic call reads like this: under setting [3], “inactive; negative. reevaluation of results: negative”; under setting [14], “active; equivocal (previous evaluation: positive)”.
As to `CNc1ncn(C)c1C(=O)N(C)N=O`, the mutagenic call is, setting by setting: under setting [1], “inactive; negative”; (Test System: AMES SALMONELLA TYPHIMURIUM, Strain/Indicator: TA98, Metabolic Activation: S-9, Method: STANDARD PLATE) “inactive; negative”; under setting [2], “inactive; negative”; (Test System: AMES SALMONELLA TYPHIMURIUM, Strain/Indicator: TA100, Metabolic Activation: S-9, Method: STANDARD PLATE) “active; positive”; under setting [15], “active; positive”; (Test System: AMES SALMONELLA TYPHIMURIUM, Strain/Indicator: TA102, Metabolic Activation: S-9, Method: STANDARD PLATE) “active; positive”. For the same molecule, the mutagenic call is “active; positive” (Test System: AMES SALMONELLA TYPHIMURIUM, Strain/Indicator: TA1535, Metabolic Activation: S-9, Method: STANDARD PLATE); “inactive; negative” under setting [12]; “inactive; negative” (Test System: AMES SALMONELLA TYPHIMURIUM, Strain/Indicator: TA1537, Metabolic Activation: S-9, Method: STANDARD PLATE).
`Cn1c2ccccc2c2nn[n+]([O-])c(C(=O)OCCCl)c21`: the mutagenic call (Test System: AMES SALMONELLA TYPHIMURIUM, Strain/Indicator: TA97, Metabolic Activation: NONE, Method: STANDARD PLATE) was “active; positive”; the mutagenic call (Test System: AMES SALMONELLA TYPHIMURIUM, Strain/Indicator: TA97, Metabolic Activation: RAT, LIVER, S-9, AROCLOR 1254 (4%, 10%), Method: STANDARD PLATE) was “active; positive”; the mutagenic call under setting [1] is “active; positive”; the mutagenic call (Test System: AMES SALMONELLA TYPHIMURIUM, Strain/Indicator: TA98, Metabolic Activation: RAT, LIVER, S-9, AROCLOR 1254 (4%, 10%), Method: STANDARD PLATE) was “active; positive”; the mutagenic call under setting [2] was “inactive; negative”; the mutagenic call (Test System: AMES SALMONELLA TYPHIMURIUM, Strain/Indicator: TA100, Metabolic Activation: RAT, LIVER, S-9, AROCLOR 1254 (4%, 10%), Method: STANDARD PLATE) is “inactive; negative”. The mutagenic call reads like this: under setting [15], “inactive; negative”; (Test System: AMES SALMONELLA TYPHIMURIUM, Strain/Indicator: TA102, Metabolic Activation: RAT, LIVER, S-9, AROCLOR 1254 (4%, 10%), Method: STANDARD PLATE) “inactive; negative”.
Turning to `COc1ccccc1/C=C/C=O`, the mutagenic call (Test System: AMES SALMONELLA TYPHIMURIUM, Strain/Indicator: TA98, Metabolic Activation: HAMSTER, LIVER, S-9, AROCLOR 1254 (2.5-20%), Method: PREINCUBATION) is “inactive; negative”; the mutagenic call under setting [4] is “inactive; negative”; the mutagenic call under setting [1] was “inactive; negative”; the mutagenic call under setting [5] is “inactive; negative”; the mutagenic call (Test System: AMES SALMONELLA TYPHIMURIUM, Strain/Indicator: TA100, Metabolic Activation: HAMSTER, LIVER, S-9, AROCLOR 1254 (2.5-20%), Method: PREINCUBATION) was “inactive; negative”; the mutagenic call under setting [6] is “inactive; negative”. Besides, the mutagenic call is “inactive; negative” (Test System: AMES SALMONELLA TYPHIMURIUM, Strain/Indicator: TA100, Metabolic Activation: NONE, Method: PREINCUBATION); “inactive; negative” under setting [2]; “inactive; negative” (Test System: AMES SALMONELLA TYPHIMURIUM, Strain/Indicator: TA100, Metabolic Activation: RAT, LIVER, S-9, AROCLOR 1254, Method: PREINCUBATION); “inactive; negative” under setting [7]; “inactive; negative” (Test System: AMES SALMONELLA TYPHIMURIUM, Strain/Indicator: TA102, Metabolic Activation: HAMSTER, LIVER, S-9, AROCLOR 1254, Method: PREINCUBATION); “inactive; negative” (Test System: AMES SALMONELLA TYPHIMURIUM, Strain/Indicator: TA102, Metabolic Activation: RAT, LIVER, S-9, AROCLOR 1254, Method: PREINCUBATION). The mutagenic call reads like this: under setting [8], “inactive; negative”; (Test System: AMES SALMONELLA TYPHIMURIUM, Strain/Indicator: TA1535, Metabolic Activation: NONE, Method: PREINCUBATION) “inactive; negative”; under setting [9], “inactive; negative”; under setting [10], “inactive; negative”; under setting [11], “inactive; negative”; under setting [12], “inactive; negative”. In addition, the mutagenic call under setting [13] is “inactive; negative”; the mutagenic call (Test System: AMES SALMONELLA TYPHIMURIUM, Strain/Indicator: TA1538, Metabolic Activation: HAMSTER, LIVER, S-9, AROCLOR 1254, Method: STANDARD PLATE) was “inactive; negative”; the mutagenic call (Test System: AMES SALMONELLA TYPHIMURIUM, Strain/Indicator: TA1538, Metabolic Activation: NONE, Method: STANDARD PLATE) is “inactive; negative”; the mutagenic call (Test System: AMES SALMONELLA TYPHIMURIUM, Strain/Indicator: TA1538, Metabolic Activation: RAT, LIVER, S-9, AROCLOR 1254, Method: STANDARD PLATE) was “inactive; negative”; the mutagenic call under setting [14] was “active; inconclusive (previous evaluation positive)”; the mutagenic call (Test System: Mouse lymphoma, Strain/Indicator: L5178Y (tk+/tk-), Metabolic Activation: Rat, Liver, S-9, Aroclor 1254, Method: Suspension/plate) is “active; inconclusive (previous evaluation positive)”.
